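Grown in 96-well plates, cells were treated for 48 hours with each compound at five concentrations. Insufficient inhibition: endpoint recorded as highest concentration tested. TGI: total growth inhibition.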 A value given as a limit tells only on which side of the number the result lay.

We go through 7 molecules from PubChem BioAssay (NCI).

Test systems include SNB-75 CNS; RXF 393 renal; RPMI-8226 leukemia; MCF7 breast; SN12C renal; SK-OV-3 ovarian; CAKI-1 renal; OVCAR-8 ovarian; OVCAR-4 ovarian; SF-295 CNS; UO-31 renal; HL-60(TB) leukemia; A549 NSCLC; MDA-MB-435; NCI-H226 lung; HOP-92 NSCLC; MDA-N; SK-MEL-2 melanoma; SF-268 CNS; OVCAR-5 ovarian.
Common to all, as to assay: inhibition of tumour cell growth, NCI panel, 48 h

In the case of `CC(Oc1ccccc1)C(=O)NN` (stereo not drawn), the TGI in the test on SNB-75 CNS, in the test with RXF 393 renal, with RPMI-8226 leukemia, in the test on MCF7 breast, with SN12C renal and with SK-OV-3 ovarian was > 100 µM in each case. The TGI in the test with CAKI-1 renal, in the test on OVCAR-8 ovarian, in the test with OVCAR-4 ovarian, in the test on SF-295 CNS, with UO-31 renal and in the test on HL-60(TB) leukemia was > 100 µM in each case. Also, the TGI in the test on A549 NSCLC, in the test with MDA-MB-435, in the test on NCI-H226 lung, in the test with HOP-92 NSCLC, in the test with MDA-N and with SK-MEL-2 melanoma was > 100 µM throughout. The TGI in the test on SF-268 CNS and in the test on OVCAR-5 ovarian was > 100 µM each time.

For the molecule `OC(c1ccsc1)c1cc2ccccc2s1` (stereo not drawn), the TGI in the test with SNB-75 CNS, in the test on RXF 393 renal, in the test with RPMI-8226 leukemia, in the test on MCF7 breast, with SN12C renal and with SK-OV-3 ovarian was > 10 µM throughout. Also, the TGI with CAKI-1 renal, in the test with OVCAR-8 ovarian, in the test on OVCAR-4 ovarian, with SF-295 CNS, with UO-31 renal and with HL-60(TB) leukemia was > 10 µM each time. The TGI with A549 NSCLC, with MDA-MB-435, in the test on NCI-H226 lung, with HOP-92 NSCLC, in the test with MDA-N and with SK-MEL-2 melanoma was > 10 µM throughout. For the same molecule, the TGI with SF-268 CNS and in the test on OVCAR-5 ovarian was > 10 µM throughout.

In the case of `Brc1ccccc1/C=C\C1(c2ccccc2)OCCO1`, the TGI in the test with SNB-75 CNS was determined as 28.6 µM; in the test on RXF 393 renal, 27.7 µM; in the test with RPMI-8226 leukemia it was 6.78 µM; in the test on MCF7 breast it was 18.1 µM; in the test with SN12C renal it was 27.4 µM; in the test on SK-OV-3 ovarian, 26.5 µM. The TGI in the test on CAKI-1 renal was 16.3 µM; in the test on OVCAR-8 ovarian, 24.5 µM; in the test on OVCAR-4 ovarian, 14.8 µM; in the test on SF-295 CNS, 26.4 µM; in the test on UO-31 renal, 20 µM; with HL-60(TB) leukemia it was > 52.3 µM. Besides, the TGI was determined as 32.8 µM in the test with A549 NSCLC; 24.6 µM in the test with MDA-MB-435; 38.2 µM with NCI-H226 lung; 46.9 µM in the test with HOP-92 NSCLC; 25.3 µM in the test on MDA-N; 44.7 µM in the test on SK-MEL-2 melanoma. The TGI came to 16 µM in the test with SF-268 CNS and 29.5 µM in the test with OVCAR-5 ovarian.

For the molecule `O=c1n(CCCN2CCN(c3cccc(Cl)c3)CC2)nc2n1-c1ccc3ccccc3c1SC2`, the TGI in the test with SNB-75 CNS, in the test with RXF 393 renal, in the test on RPMI-8226 leukemia, in the test on MCF7 breast, with SN12C renal and in the test with SK-OV-3 ovarian was > 100 µM throughout. Besides, the TGI with CAKI-1 renal, in the test with OVCAR-8 ovarian, with OVCAR-4 ovarian, with SF-295 CNS, in the test on HL-60(TB) leukemia and in the test on A549 NSCLC was > 100 µM throughout. Moreover, the TGI in the test on MDA-MB-435, in the test with NCI-H226 lung, in the test with HOP-92 NSCLC, with MDA-N, in the test on SK-MEL-2 melanoma and in the test with OVCAR-5 ovarian was > 100 µM in each case.

For `C[C@H](CCC(=O)O[C@@H]1CC[C@@]2(C)C(CC[C@H]3[C@@H]4CC[C@H]([C@H](C)CCc5nc6ccccc6[nH]5)[C@@]4(C)CC[C@@H]32)C1)[C@H]1CC[C@H]2[C@@H]3CCC4C[C@H](O)CC[C@]4(C)[C@H]3CC[C@]12C` (stereo partly drawn), the TGI with SNB-75 CNS, in the test on RXF 393 renal, with RPMI-8226 leukemia, in the test on MCF7 breast, in the test on SN12C renal and in the test on SK-OV-3 ovarian was > 100 µM throughout. Besides, the TGI in the test with CAKI-1 renal, in the test on OVCAR-8 ovarian, in the test with OVCAR-4 ovarian, in the test on SF-295 CNS, in the test with UO-31 renal and with HL-60(TB) leukemia was > 100 µM each time. Also, the TGI in the test with A549 NSCLC, in the test with MDA-MB-435, in the test with NCI-H226 lung, with HOP-92 NSCLC, in the test on MDA-N and in the test with SK-MEL-2 melanoma was > 100 µM throughout. Further, the TGI in the test on SF-268 CNS and with OVCAR-5 ovarian was > 100 µM in each case.

On to `Oc1ccc2ccccc2c1-c1c(Nc2ccccc2)ccc2ccccc12`, for which the TGI with SNB-75 CNS was 31.9 µM; in the test on RXF 393 renal it was 34.3 µM; with RPMI-8226 leukemia, 47.6 µM; in the test with MCF7 breast, > 42.7 µM; in the test on SN12C renal, > 61.2 µM; in the test with SK-OV-3 ovarian it was 18.7 µM. The TGI was 28.1 µM with CAKI-1 renal; 33.8 µM with OVCAR-8 ovarian; 25.4 µM in the test with OVCAR-4 ovarian; 30.5 µM in the test on SF-295 CNS; 29.2 µM in the test on UO-31 renal; 48.4 µM in the test on HL-60(TB) leukemia. Moreover, the TGI in the test on A549 NSCLC was 38.9 µM; in the test with MDA-MB-435, 20.2 µM; in the test with NCI-H226 lung it was 36.1 µM; with HOP-92 NSCLC it was > 46.5 µM; in the test with MDA-N, 20.5 µM; in the test on SK-MEL-2 melanoma, 36.3 µM. The TGI was 31.6 µM with SF-268 CNS and > 50.1 µM with OVCAR-5 ovarian.

In the case of `CC/C(Cl)=N\OC(=O)Nc1ccccc1OC(F)(F)F`, the TGI was 48.2 µM in the test on SNB-75 CNS; 32.6 µM in the test on RXF 393 renal; 4.12 µM in the test on RPMI-8226 leukemia; > 51.3 µM in the test on MCF7 breast; 14.2 µM in the test on SN12C renal; 37.3 µM in the test with SK-OV-3 ovarian. Besides, the TGI in the test on CAKI-1 renal is 3.33 µM; in the test with OVCAR-8 ovarian, 35.9 µM; in the test with OVCAR-4 ovarian, 41.6 µM; in the test on SF-295 CNS, 33.5 µM; with UO-31 renal, 18.2 µM; with HL-60(TB) leukemia, 3.6 µM. Besides, the TGI in the test with A549 NSCLC was found to be 51.5 µM; in the test with MDA-MB-435, 40.7 µM; with NCI-H226 lung, 38.1 µM; with HOP-92 NSCLC, 6.15 µM; in the test with MDA-N, 22.9 µM; in the test on SK-MEL-2 melanoma, 32.8 µM. The TGI in the test on SF-268 CNS was > 57.8 µM; in the test with OVCAR-5 ovarian, 36.9 µM.
